In patent US12173007B2, “Imidazopyridazine IL-17 inhibitor compounds” (Janssen Pharmaceutica NV, priority 2021, dated 2024):
pIC50: −log10 of the molar value.

Key:
[1] = molecular target: T1, IL-17A(FLAG-Tagged): IL-17RA(His-Tagged) binding (Homo sapiens, UniProt Q16552, K93Q); assay: IL-17A(FLAG-tagged):IL-17RA(His-tagged) binding disruption Eu-HTRF assay, Protocol 1; settings: FLAG-IL-17A 2.5 nM; average if tested more than once
Excerpt: IL-17A(FLAG-Tagged): IL-17RA(His-Tagged) Binding Disruption Eu-HTRF Assay
An antibody directed against the FLAG tag of IL-17A (SEQ ID NO: 1) is labeled with the HTRF donor chromophore (Europium-cryptate). IL-17A is present as a dimer that is “locked into” this quaternary structure due to the formation of loop-spanning […] disulfide bridges. The construct of IL-17RA used in the assay excludes the […] portion of the receptor and is fused to a C-terminal 10×His tag (SEQ ID NO:2). An antibody directed against the His tag of the IL-17RA chimera is labeled with the HTRF acceptor chromophore (“D2”). The fluorescence-resonance energy transfer (FRET) depends on the vicinity of the donor chromophore to the acceptor, and interruption of the binding between the IL-17A and IL-17RA causes the reduction/loss of FRET. Therefore, this assay allows to evaluate the compound effect on the binding IL-17A and IL-17RA by monitoring the fluorescence intensity of donor vs acceptor. The assay was run using either Protocol 1 or Protocol 2 as described below.
Protocol 1. 40 nl of 2-fold serial diluted compound solution for total 22 dilution points is added into each well of a 1536-well, white, low-volume, non-binding plate (Greiner #782904), then 2 μl of FLAG tagged IL-17A at 2×final concentration (2.5 nM) in solution of PBS+0.01% Triton-X100 is added to each well. The assay plate is briefly centrifuged then incubated for 1 h at rt. A mixed solution is prepared containing 2×5 nM 10HIS×IL-17RA, 2×2.5 nM Eu-anti-FLAG (CISBIO), 2×5 nM D2-anti-HIS (CISBIO) in PBS+0.01% Triton-X100+200 mM Potassium Fluoride (Sigma 60238) and 2 μl of mix is added to each well of the assay plate. The plate is briefly centrifuged then incubated for 2 h at rt. The HTRF intensities at the wavelength of donor (620 nm) and acceptor (665 nm) are measured using BMG Pherastar. The ratio between intensities at two wavelengths is calculated and plotted against the compound concentration and the data is fitted to a one-site competition model to yield IC50 of the compound.

[2] = molecular target: T1, IL-17A(FLAG-Tagged): IL-17RA(His-Tagged) binding; assay: IL-17A(FLAG-tagged):IL-17RA(His-tagged) binding disruption Eu-HTRF assay, Protocol 2; settings: FLAG-IL-17A 1 nM; average if tested more than once
How it was run: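 FLAG-tagged IL-17A (1 nM final) was preincubated with compound (2-fold serial dilutions, 22 points) for 1 h at rt in PBS + 0.01% Triton X-100. 10×His-IL-17RA, Eu-anti-FLAG and D2-anti-His in buffer containing KF were then added for 2 h at rt. IC50 came from the 665/615 nm HTRF ratio fitted to a one-site competition model.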

[3] = tested on: IL-17A-induced G-CSF production in human normal keratinocyte (NHK); assay: NHK assay: IL-17A-induced G-CSF production in normal human keratinocytes; type: cell-based; settings: Homo sapiens, Keratinocyte, 24 h, IL-17A 5 ng/mL, G-CSF by HTRF, average if tested more than once
How it was run: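 Stimulus rhIL-17A 5 ng/mL final, premixed 1 h rt with compound; adult NHK, 5% FBS, 0.2% DMSO. Viability by CellTiter-Glo vs DMSO.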

[4] = moderate-to-severe HS, seven of nine patients, open-label pilot-trial; cited from earlier work

T1 sequence (Q16552 with tags, fused parts or gaps K93Q): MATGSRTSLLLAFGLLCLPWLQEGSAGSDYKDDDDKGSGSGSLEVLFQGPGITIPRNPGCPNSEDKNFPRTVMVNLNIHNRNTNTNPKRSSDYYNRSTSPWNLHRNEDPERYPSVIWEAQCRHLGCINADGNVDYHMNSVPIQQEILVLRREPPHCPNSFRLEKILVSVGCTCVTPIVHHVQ

Molecule | pIC50 [1] | pIC50 [2] | pIC50 [3] | patients achieved HiSCR [4] [%]
COC[C@H](c1cnn2cc([C@@H](NC(=O)c3nonc3C3CC3)C3CCC(F)(F)CC3)nc2c1)N1CC(F)(F)CNC1=O [Example 11, 4-Cyclopropyl-N—((S)-(7-((S)-1-(5,5-difluoro-2-oxotetrahydropyrimidin-1(2H)-yl)-2-methoxyethyl)imidazo[1,2-b]pyridazin-2-yl)(4,4-difluorocyclohexyl)methyl)-1,2,5-oxadiazole-3-carboxamide] | > 7.30 | > 7.30 | > 7.30 | –
Cc1nonc1C(=O)N[C@H](c1cn2ncc([C@@H](COC3CC3)N3CC(F)(F)CNC3=O)cc2n1)C1CCC(F)(F)CC1 [Example 16, N—((S)-(7-((S)-2-Cyclopropoxy-1-(5,5-difluoro-2-oxotetrahydropyrimidin-1(2H)-yl)ethyl)imidazo[1,2-b]pyridazin-2-yl)(4,4-difluorocyclohexyl)methyl)-4-methyl-1,2,5-oxadiazole-3-carboxamide] | > 7.30 | > 7.30 | > 7.30 | –
O=C(N[C@H](c1cn2ncc(CN3CCCCNC3=O)cc2n1)C1CCC(F)(F)CC1)c1nonc1C1CC1 [Example 30, (S)-4-Cyclopropyl-N-((4,4-difluorocyclohexyl)(7-((2-oxo-1,3-diazepan-1-yl)methyl)imidazo[1,2-b]pyridazin-2-yl)methyl)-1,2,5-oxadiazole-3-carboxamide] | 7.00 to 7.30 | – | < 7.00 | –
CC(C)n1nccc1C(=O)N[C@H](c1cn2ncc(CN3CCCCNC3=O)cc2n1)C1CCC(F)(F)CC1 [Example 31, (S)—N-((4,4-Difluorocyclohexyl)(7-((2-oxo-1,3-diazepan-1-yl)methyl)imidazo[1,2-b]pyridazin-2-yl)methyl)-1-isopropyl-1H-pyrazole-5-carboxamide] | < 7.00 | – | < 7.00 | –
Cc1nonc1C(=O)N[C@H](c1cn2ncc(CN3CC(C)(C)CNC3=O)cc2n1)C1CCC(F)(F)CC1 [Example 32, (S)—N-((4,4-Difluorocyclohexyl)(7-((5,5-dimethyl-2-oxotetrahydropyrimidin-1(2H)-yl)methyl)imidazo[1,2-b]pyridazin-2-yl)methyl)-4-methyl-1,2,5-oxadiazole-3-carboxamide] | < 7.00 | – | < 7.00 | –
CC1(C)CNC(=O)N(Cc2cnn3cc([C@@H](NC(=O)c4nonc4C4CC4)C4CCC(F)(F)CC4)nc3c2)C1 [Example 33, (S)-4-Cyclopropyl-N-((4,4-difluorocyclohexyl)(7-((5,5-dimethyl-2-oxotetrahydropyrimidin-1(2H)-yl)methyl)imidazo[1,2-b]pyridazin-2-yl)methyl)-1,2,5-oxadiazole-3-carboxamide] | 7.00 to 7.30 | – | < 7.00 | –
CC(C)n1nccc1C(=O)N[C@H](c1cn2ncc(CN3CC(C)(C)CNC3=O)cc2n1)C1CCC(F)(F)CC1 [Example 34, (S)—N-((4,4-Difluorocyclohexyl)(7-((5,5-dimethyl-2-oxotetrahydropyrimidin-1(2H)-yl)methyl)imidazo[1,2-b]pyridazin-2-yl)methyl)-1-isopropyl-1H-pyrazole-5-carboxamide] | < 7.00 | – | < 7.00 | –
N#CC1([C@H](c2cnn3cc([C@@H](NC(=O)c4nonc4C4CC4)C4CCC(F)(F)CC4)nc3c2)N2CC(F)(F)CNC2=O)CCC1 [Example 85, N—((S)-(7-((S)-(1-Cyanocyclobutyl)(5,5-difluoro-2-oxotetrahydropyrimidin-1(2H)-yl)methyl)imidazo[1,2-b]pyridazin-2-yl)(4,4-difluorocyclohexyl)methyl)-4-cyclopropyl-1,2,5-oxadiazole-3-carboxamide] | > 7.30 | – | < 7.00 | –
O=C(N[C@H](c1cn2ncc(CN3CC(F)(F)C(F)(F)CNC3=O)cc2n1)C1CCC(F)(F)CC1)c1nonc1C1CC1 [Example 86, (S)-4-Cyclopropyl-N-((4,4-difluorocyclohexyl)(7-((5,5,6,6-tetrafluoro-2-oxo-1,3-diazepan-1-yl)methyl)imidazo[1,2-b]pyridazin-2-yl)methyl)-1,2,5-oxadiazole-3-carboxamide] | > 7.30 | > 7.30 | > 7.30 | –
secukinumab | – | – | – | 78
